These results are taken from publication PMC12782889, “A GmNRF5a–GmCERK1–GmCAK1 module mediates chitin/chitosan‐triggered immune response in soybean” (Journal of Integrative Plant Biology, 2025).

Structures are written as SMILES.

For one assay, the target named is GmCERK1^ECD (Glycine max, UniProt K7N1N7). Kind of assay: Microscale thermophoresis (MST) binding to GmCERK1^ECD. Conditions: ligand dp6, His-tagged protein purified from Pichia pastoris, read-out: dissociation constant (K D) with GmCERK1^ECD. The arrangement: species or system soybean (Glycine max). An excerpt: (§1) The ectodomains of GmCERK1, GmNFR5a, and mutants were cloned into the yeast expression vector pPICZαA (Thermo Fisher Scientific, Shanghai, China) through the double digestion and ligation using the restriction endonuclease EcoRI/XbaI (NEB, Suzhou, China) and T4 ligase. Then, the linearized recombinant plasmid pPICZαA‐GmCERK1 and pPICZαA‐GmNFR5a were transformed into P. pastoris X‐33. The positive colonies were selected on YPDS medium (1% w/v yeast extract, 2% w/v peptone, 2% w/v glucose, 2% w/v agar, 100 μg/mL antibiotic Zeocin (Thermo Fisher Scientific)) plates and verified by direct DNA sequencing. Protein expression was carried out initially in BMGY media (100 mM potassium phosphate pH 6.0, 1.34% w/v YNB, 4 × 10^−5% w/v biotin, 1% v/v glycerol) at 28°C with shaking (180 rpm) until the OD600 reached 2.0–6.0. The cell pellet was transferred into BMMY medium (100 mM potassium phosphate pH 6.0, 1.34% w/v YNB, 4 × 10^−5% w/v biotin, 0.5% v/v methanol) and continuously supplied with the addition of 0.5% (v/v) methanol every day for 5 d. […]
(§2) GmCERK1^ECD, GmNFR5a^ECD, and all mutants were labeled with a fluorescent dye using the Monolith Protein Labeling Kit RED‐NHS second Generation (MO‐L011). […] The data were analyzed and fitted by plotting ligand concentrations against bound fractions using the MO.Affinity Analysis v3.0.5 software. […]

Another assay deals with GmCERK1^ECDY109R. Kind of assay: MST binding to GmCERK1^ECD mutant Y109R. On the set-up: species or system soybean (Glycine max). Particulars: ligand dp6.
From the text: as §1, §2

The next assay deals with GmCERK1^ECDI137R. Kind of assay: MST binding to GmCERK1^ECD mutant I137R. On the set-up: species or system soybean (Glycine max). Conditions: ligand dp6.
From the text: as §1, §2

The next assay has as its system GmNFR5a^ECDL153R. Kind of assay: MST binding to GmNFR5a^ECD mutant L153R. On the set-up: species or system soybean (Glycine max). Particulars: ligand dp6.
From the text: as §1, §2

Assay [1] deals with phosphorylated MPK6/3/4 (P42/44) in soybean leaf discs. Kind of assay: MAPK phosphorylation immunoblot in soybean leaf discs. The format is cell-based, soybean (Glycine max). Conditions: soybean leaf discs at 5 min; anti-phospho P42/44 immunoblot; vs control dH2O. Here is the method: (§3) To measure the oxidation burst, leaf discs (Ø 0.5 cm) collected from 2-week-old soybean (cultivar Williams) were floated overnight in 200 μL sterile H2O in a 96-well plate. The H2O was replaced with 200 μL reaction buffer containing luminol/peroxidase ([…] luminol, 10 mg/mL peroxidase) and chitooligosaccharides treatments (50 mg/L). flg22 was used as a positive control. The luminescence was measured using a GLOMAX96 microplate luminometer (Promega, Madison, WI, USA). The experiments for MAPK activation were carried out as described previously ([[…] et al., 2014]). The MAPK activation was determined by immunoblots with anti-phospho-p44/42 MAPK antibody (#4370; Cell Signaling, Boston, MA, USA).
A general note: In western blotting, separated proteins are transferred to a membrane and probed.

The subject of another assay is Phytophthora sojae P6497. Kind of assay: P. sojae infection of pretreated soybean etiolated hypocotyls. Particulars: for biomass of P. sojae: dp6, 50 mg/L, 24 h before inoculation with zoospores, etiolated hypocotyls, 48 hpi, genomic DNA qPCR, vs mock dH2O. The assay is classed as in vivo, Phytophthora sojae on soybean (Glycine max). As to the method:
For soybean etiolated hypocotyls inoculation assays, etiolated hypocotyls of soybean (cultivar Williams) were inoculated with P. sojae zoospore suspensions (100 zoospores). Infected etiolated hypocotyls were maintained at 25°C in the dark for 2 d, photographed and collected for biomass detection. For soybean hairy‐root inoculation assays, transgenic hairy roots were soaked in CTOS/CSOS (50 mg/L) or mock (dH2O) for 12 h and then were infected with red fluorescent protein (RFP)‐labeled P. sojae strain P6497, and fluorescence was visualized in the infected area of soybean hairy root and the biomass of P. sojae was determined by qRT‐PCR at 48 hpi.
For orientation: Real-time PCR tracks product formation cycle by cycle.

Assay [2] relates to soybean leaf discs (ROS burst). Kind of assay: Luminol-based ROS burst assay in soybean leaf discs. The assay is classed as cell-based, soybean (Glycine max). Conditions: 50 mg/L, leaf discs of soybean Williams, dH2O negative control. Here is the method: as §3
The next assay has as its target T1, AtCERK1^ECD (Arabidopsis thaliana, UniProt A8R7E6).
T1 construct: ectodomain of AtCERK1 (aa25–224); made in house; host or cells: Pichia pastoris X-33
T1 sequence (A8R7E6 25-224): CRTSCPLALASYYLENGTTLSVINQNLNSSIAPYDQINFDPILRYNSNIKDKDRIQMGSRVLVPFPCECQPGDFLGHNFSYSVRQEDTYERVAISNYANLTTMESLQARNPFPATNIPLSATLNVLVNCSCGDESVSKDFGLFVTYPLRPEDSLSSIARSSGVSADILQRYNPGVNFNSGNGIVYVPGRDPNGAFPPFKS
On the set-up: method as in Cao et al., 2014. Conditions: isothermal titration calorimetry (ITC); ref Cao et al., 2014; read-out: K D for AtCERK1^ECD with CTOS; cited from earlier work. In general terms: Isothermal titration calorimetry measures the heat released or taken up as one component is titrated into another.

Chain of GmCERK1^ECD (K7N1N7 entry or part of it): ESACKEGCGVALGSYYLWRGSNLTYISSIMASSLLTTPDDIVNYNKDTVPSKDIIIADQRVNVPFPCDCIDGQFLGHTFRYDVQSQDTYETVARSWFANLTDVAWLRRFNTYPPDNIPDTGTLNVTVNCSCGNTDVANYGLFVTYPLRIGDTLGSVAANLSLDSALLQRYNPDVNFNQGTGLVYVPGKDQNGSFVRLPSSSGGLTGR

For `N[C@H]1[C@H](O[C@H]2[C@H](O)[C@@H](N)[C@H](O[C@H]3[C@H](O)[C@@H](N)[C@H](O[C@H]4[C@H](O)[C@@H](N)[C@H](O[C@H]5[C@H](O)[C@@H](N)[C@H](O[C@H]6[C@H](O)[C@@H](N)C(O)O[C@@H]6CO)O[C@@H]5CO)O[C@@H]4CO)O[C@@H]3CO)O[C@@H]2CO)O[C@H](CO)[C@@H](O)[C@@H]1O` (some centres unmarked) [CSOS (dp6), chitosan oligosaccharide], on GmCERK1^ECD, the Kd turned out to be 10.6 ± 1.46 mM. The “interaction with GmCERK1^ECDY109R” value in the assay on GmCERK1^ECDY109R is on record as “cannot interact”. The “interaction with GmCERK1^ECDI137R” value in the assay on GmCERK1^ECDI137R was “cannot interact”. In addition, the “interaction with GmNFR5a^ECDL153R” value in the assay on GmNFR5a^ECDL153R is listed as “cannot interact”. In assay [1], the MAPK phosphorylation entry is on record as “can induce MAPK activity”. For the same compound, in the assay with Phytophthora sojae P6497, the “biomass of P. sojae” value is listed as “significantly lower”. Moreover, the “plant resistance elicited, compared with CTOS” value in the assay on Phytophthora sojae P6497 (soybean etiolated hypocotyls, P. sojae (Figure 1E, F)) is recorded as “somewhat weaker”.

As for `CC(=O)N[C@H]1[C@H](O[C@H]2[C@H](O)[C@@H](NC(C)=O)[C@H](O[C@H]3[C@H](O)[C@@H](NC(C)=O)C(O)O[C@@H]3CO)O[C@@H]2CO)O[C@H](CO)[C@@H](O[C@@H]2O[C@H](CO)[C@@H](O[C@@H]3O[C@H](CO)[C@@H](O[C@@H]4O[C@H](CO)[C@@H](O)[C@H](O)[C@H]4NC(C)=O)[C@H](O)[C@H]3NC(C)=O)[C@H](O)[C@H]2NC(C)=O)[C@@H]1O` (some centres unmarked) [CTOS (dp6), chitin oligosaccharide], the values for the Kd at GmCERK1^ECD and at AtCERK1^ECD were 3.25 ± 0.95 mM and 0.455 mM, respectively. The ROS burst result in assay [2] is recorded as “stronger ROS burst than that of CTOS (dp4)”. Besides, the “biomass of P. sojae” value with Phytophthora sojae P6497 is “significantly lower”.
